Source: patent US11331289B2, “Antimicrobial composition” (priority 2017, dated 2022)
Converted amounts (≈) assume the structure as drawn. Read-outs that look alike come from different tables or passages of the source.

Columns and labels:
[1] = tested on: Malassezia pachydermatis; assay: MIC, microdilution broth method; assay type: cell-based; details: for MIC: Malassezia pachydermatis, read-out: MIC
Experimental: Six clinical isolates from dog skin (n=5) and cats (n=1) which had been sent to EnvA (mycology laboratory of BioPôle Alfort) for mycological culture. The isolates, collected in March 2016, were identified as belonging to the species Malassezia pachydermatis. They were maintained by regular transplanting on medium of Sabouraud. Isolates are subcultured 2 to 3 days prior to testing sensitivity.
A stock solution of Oxyclozanide at 1600 μg/mL is prepared in DMSO. The stock solution is then diluted in DMSO to obtain a concentration range of 3.125 μg/ml to 800 μg/ml. A 1/50 dilution of this range and of the stock solution is then carried out in ultrapure water so as to obtain a concentration range of 0.0625 μg/ml to 32 μg/ml and containing 2% of DMSO. 50 μl of these solutions are deposited in wells of a microplate and then 50 μl of inoculum calibrated at 10^6 CFU/ml in Sabouraud/Tween 40 (2%) are added. A range of tested concentrations ranges from 0.0312 μg/mL to 16 μg/mL. The final concentration of DMSO in contact with the inoculum is 1%. The same dilution and seeding protocol was followed with a stock solution of amphotericin B at 1600 μg/ml. A “placebo” (or yeast growth control) column is systematically included in the plates. The plates are incubated at 37 ° C. The reading is done at 24 and 48 h. Several trials were conducted and protocol adjustments were required. In particular, the concentration of the inoculum had to be reduced for antifungal activity to be observed.

[2] = tested on: MRSP 16127; assay: Time-killing curve, inoculum 5.10^5 CFU/ml (MIC 0.25 μg/ml); assay type: cell-based, Staphylococcus pseudintermedius
Experimental: The objective of this study is to assess in vitro the time-killing curves of oxyclozanide against four strains of Methicillin-Resistant Staphylococcus from dogs.
Two Methicillin-Resistant Staphylococcus aureus (MRSA) and two Methicillin-Resistant Staphylococcus pseudintermedius (MRSP) isolated from the clinics have been tested.
The assessment of time-killing curves has been realized by a broth macrodilution method (Mueller-Hinton II Broth).
Oxyclozanide is diluted in (DMSO) into sterile tubes in order to obtain the following concentrations from 800 to 6.25 μg/ml. Those concentrations and stock standard solution are then diluted (1/10) in Mueller-Hinton II Broth in order to obtain the following concentrations from […] (See Table 2).
Each operation is performed under sterile conditions. Each working standard solution (10*the final active ingredient concentration) is distributed in tubes (1 ml, for a final volume of 10 ml after addition of 9 ml of inoculum). One tube without active ingredient is used as growth control (Concentration=0).
Bacterial isolates are sub-cultured from one cryobead on Columbia agar supplemented with 5% of blood. Pure cultures are incubated during 18-24 hours at 37° C. Three to five isolated colonies of similar appearance are selected from a previous culture and transferred into tubes containing 9 ml of Mueller-Hinton II Broth. The broth is incubated during 12-18 hours at 37° C. 0.5 to 1 ml of this broth is inoculated to another Mueller-Hinton II Broth 9 ml tube which is incubated during 3 to 4 hours at 37° C. to reach the exponential growth phase. The bacterial inoculum grown exponential phase is suspended to an optical density of McFarland standard scale 0.5 equivalent to a bacterial density of 10^8 CFU/ml and then adjusted to a concentration of about 5.10^5 CFU/ml as indicated by the guideline CLSI M26-A and to a second inoculum tested: 10^6 CFU/ml.
9 ml of bacterial inoculum grown to exponential phase is added to 1 ml of active ingredient (or Mueller Hinton II Broth for the growth control). Tubes are incubated at 35° C. during 24 hours.
At times 0, 2, 4, 6 and 24 hours, 100 μl of broth of each tube is sampled and diluted in microplates:
Each well is re-cultured by streaking 10 μl on Columbia agar supplemented with 5% of blood. Plates are incubated at 37° C. during 18-24 hours incubation. Thus, residual bacterial concentrations are determined (CFU/ml). Results are expressed in log10 values of CFU/ml over-time in broth. Due to the procedure used, the minimal bacterial concentration that can be assessed is 10^2 CFU/ml.

Q: How did the MIC ([1]; Isolate 1, Assay 1, 10^6 CFU/ml) turn out when `O=C(Nc1cc(Cl)cc(Cl)c1O)c1c(O)c(Cl)cc(Cl)c1Cl` [Oxyclozanide] was run?
A: 8 µg/mL (≈ 19.9 µM)

Q: What about the MIC ([1]; Isolate 1, Assay 2, 10^6 CFU/ml) of the same molecule?
A: 4 µg/mL (≈ 9.96 µM)

Q: And the MIC ([1]; Isolate 2, Assay 1, 10^6 CFU/ml)?
A: 8 µg/mL (≈ 19.9 µM)

Q: And the MIC ([1]; Isolate 2, Assay 2, 10^6 CFU/ml)?
A: 8 µg/mL (≈ 19.9 µM)

Q: What about the MIC ([1]; Isolate 3, Assay 1, 10^6 CFU/ml) of the same molecule?
A: 8 µg/mL (≈ 19.9 µM)

Q: What about the MIC ([1]; Isolate 3, Assay 2, 10^6 CFU/ml) of the same molecule?
A: 16 µg/mL (≈ 39.9 µM)

Q: And the MIC ([1]; Isolate 4, Assay 1, 10^6 CFU/ml)?
A: > 16 µg/mL

Q: What about the MIC ([1]; Isolate 4, Assay 2, 10^6 CFU/ml) of the same molecule?
A: > 16 µg/mL

Q: And the MIC ([1]; Isolate 5, Assay 1, 10^6 CFU/ml)?
A: 8 µg/mL (≈ 19.9 µM)

Q: What about the MIC ([1]; Isolate 5, Assay 2, 10^6 CFU/ml) of the same molecule?
A: 8 µg/mL (≈ 19.9 µM)

Q: And the MIC ([1]; Isolate 6, Assay 1, 10^6 CFU/ml)?
A: 8 µg/mL (≈ 19.9 µM)

Q: And the MIC ([1]; Isolate 6, Assay 2, 10^6 CFU/ml)?
A: 16 µg/mL (≈ 39.9 µM)

Q: What about the “Activity with respect to Malassezia pachydermatis” value ([1]; isolate 3) of the same molecule?
A: no activity

Q: And the “Activity with respect to Malassezia pachydermatis” value ([1]; six clinical isolates)?
A: active

Q: And the Counting results ([2]; 1 MIC, 0 h)?
A: 3.600E+05 CFU/ml

Q: What about the Counting results ([2]; 1 MIC, 2 h) of the same molecule?
A: 2.300E+05 CFU/ml

Q: And the Counting results ([2]; 1 MIC, 4 h)?
A: 1.900E+06 CFU/ml

Q: And the Counting results ([2]; 1 MIC, 6 h)?
A: 4.600E+06 CFU/ml

Q: And the Counting results ([2]; 1 MIC, 24 h)?
A: 8.100E+08 CFU/ml

Q: What about the Counting results ([2]; 2 MIC, 0 h) of the same molecule?
A: 3.600E+05 CFU/ml

Q: And the Counting results ([2]; 2 MIC, 2 h)?
A: 2.000E+05 CFU/ml

Q: And the Counting results ([2]; 2 MIC, 4 h)?
A: 2.400E+05 CFU/ml

Q: And the Counting results ([2]; 2 MIC, 6 h)?
A: 2.400E+05 CFU/ml

Q: What about the Counting results ([2]; 2 MIC, 24 h) of the same molecule?
A: 6.600E+05 CFU/ml

Q: And the Counting results ([2]; 4 MIC, 0 h)?
A: 3.600E+05 CFU/ml

Q: And the Counting results ([2]; 4 MIC, 2 h)?
A: 1.400E+04 CFU/ml

Q: And the Counting results ([2]; 4 MIC, 4 h)?
A: 4.400E+03 CFU/ml

Q: And the Counting results ([2]; 4 MIC, 6 h)?
A: 3.500E+03 CFU/ml

Q: And the Counting results ([2]; 4 MIC, 24 h)?
A: 1.300E+03 CFU/ml

Q: What about the Counting results ([2]; 8 MIC, 0 h) of the same molecule?
A: 3.600E+05 CFU/ml

Q: And the Counting results ([2]; 8 MIC, 2 h)?
A: 1.600E+03 CFU/ml

Q: What about the Counting results ([2]; 8 MIC, 4 h) of the same molecule?
A: 4.000E+02 CFU/ml

Q: What about the Counting results ([2]; 8 MIC, 6 h) of the same molecule?
A: 1.000E+02 CFU/ml

Q: And the Counting results ([2]; 8 MIC, 24 h)?
A: 1.000E+02 CFU/ml

Q: And the Counting results ([2]; 16 MIC, 0 h)?
A: 3.600E+05 CFU/ml

Q: What about the Counting results ([2]; 16 MIC, 2 h) of the same molecule?
A: 3.000E+02 CFU/ml

Q: What about the Counting results ([2]; 16 MIC, 4 h) of the same molecule?
A: 1.000E+02 CFU/ml

Q: What about the Counting results ([2]; 16 MIC, 6 h) of the same molecule?
A: 1.000E+02 CFU/ml

Q: And the Counting results ([2]; 16 MIC, 24 h)?
A: 1.000E+02 CFU/ml

Q: What about the “Time to obtain bactericidal effect at 4 MIC” value ([2]; 16127/5.10^5 CFU/ml, >=3 log10 decrease in CFU) of the same molecule?
A: 6 to 24 h

Q: And the Counting results ([2]; ¼ MIC, 0 h)?
A: 3.600E+05 CFU/ml

Q: What about the Counting results ([2]; ¼ MIC, 2 h) of the same molecule?
A: 3.900E+05 CFU/ml

Q: What about the Counting results ([2]; ¼ MIC, 4 h) of the same molecule?
A: 5.900E+06 CFU/ml

Q: What about the Counting results ([2]; ¼ MIC, 6 h) of the same molecule?
A: 3.400E+07 CFU/ml

Q: What about the Counting results ([2]; ¼ MIC, 24 h) of the same molecule?
A: 2.900E+10 CFU/ml

Q: And the Counting results ([2]; ½ MIC, 0 h)?
A: 3.600E+05 CFU/ml

Q: And the Counting results ([2]; ½ MIC, 2 h)?
A: 3.300E+05 CFU/ml

Q: What about the Counting results ([2]; ½ MIC, 4 h) of the same molecule?
A: 2.700E+06 CFU/ml

Q: What about the Counting results ([2]; ½ MIC, 6 h) of the same molecule?
A: 2.400E+07 CFU/ml

Q: And the Counting results ([2]; ½ MIC, 24 h)?
A: 2.900E+10 CFU/ml
